Test results: the NIST ThermoML archive (doi:10.1016/j.jct.2005.09.003)

Assay: xn = mol fraction of the nth substance listed
Conditions: 298.15 K, Liquid

CCCCCCCl [1-chlorohexane] + CCCCCCCC
mass density [kg/m3]
Conditions	x2 = 0	x2 = 0.1016	x2 = 0.1996	x2 = 0.3153	x2 = 0.3948	x2 = 0.4862	x2 = 0.5938	x2 = 0.6966	x2 = 0.794	x2 = 0.9001
100 kPa	873.42	852.6	833.25	811.26	796.69	780.47	762.03	745.09	729.61	713.36
2130 kPa	874.73	854.08	834.69	812.8	798.13	781.96	763.56	746.66	731.16	714.88
4150 kPa	876.45	855.81	836.43	814.54	799.88	783.71	765.29	748.4	732.88	716.61
6180 kPa	878.31	857.67	838.25	816.37	801.68	785.49	767.08	750.15	734.61	718.33
8210 kPa	879.79	859.18	839.81	817.9	803.24	787.05	768.66	751.72	736.21	719.94
10230 kPa	881.44	860.8	841.43	819.53	804.88	788.69	770.3	753.38	737.85	721.55
11250 kPa	882.22	861.6	842.23	820.34	805.7	789.48	771.11	754.16	738.66	722.34
12260 kPa	883.01	862.42	843.03	821.13	806.5	790.3	771.9	754.95	739.44	723.13
14290 kPa	884.61	864.01	844.63	822.72	808.08	791.9	773.49	756.55	741	724.69
16310 kPa	886.16	865.53	846.17	824.27	809.62	793.43	775.01	758.05	742.51	726.2
18340 kPa	887.68	867.07	847.69	825.8	811.15	794.94	776.55	759.59	744.03	727.69
20370 kPa	889.18	868.58	849.18	827.29	812.64	796.42	778.03	761.06	745.51	729.16
22390 kPa	890.65	870.05	850.64	828.77	814.1	797.89	779.48	762.51	746.97	730.59
24420 kPa	892.14	871.52	852.13	830.22	815.56	799.35	780.91	763.95	748.37	732.01
26450 kPa	893.54	872.95	853.55	831.64	816.97	800.75	782.33	765.32	749.76	733.39
28470 kPa	894.96	874.35	854.96	833.04	818.37	802.14	783.71	766.73	751.13	734.74
29490 kPa	895.65	875.05	855.64	833.73	819.06	802.85	784.39	767.4	751.81	735.41
30500 kPa	896.32	875.72	856.33	834.42	819.73	803.52	785.07	768.07	752.47	736.07
32530 kPa	897.71	877.11	857.7	835.79	821.11	804.86	786.42	769.4	753.8	737.38
34550 kPa	899.05	878.46	859.03	837.12	822.43	806.19	787.72	770.72	755.08	738.69
36580 kPa	900.38	879.77	860.35	838.43	823.74	807.48	789.01	772.01	756.36	739.94
38600 kPa	901.69	881.06	861.67	839.72	825.03	808.77	790.32	773.27	757.63	741.21
39620 kPa	902.33	881.71	862.31	840.38	825.68	809.4	790.96	773.9	758.25	–
